This note sets out measurements from patent publication US6214805A, “RNase L activators and antisense oligonucleotides effective to treat RSV infections” (priority 1997, dated 2001).

Several values for one entry are separate records, joined by “and”; a condition that tells them apart may be missing. Equal entries are not always repeated. Bounds are passed on as bounds.

Series [1] has as its system RSV strain A2. The series is described as follows: Inhibition of RSV replication in RSV-infected 9HTE cells, virus plaque assay on CV-1 cells at 36 h post-infection. The class given is cell-based, Respiratory syncytial virus. The conditions noted are these: 9HTE cells; for % Inhibition of RSV replication: M.O.I. 2.0, 36 hrs post-infection. An excerpt: To develop 2-5A antisense chimeras with the potential to block RSV replication, an oligonucleotide binding site in the viral RNA polymerase (RSV L) mRNA, which encodes a low abundance message that is absolutely required for RSV replication was selected. The first chimera synthesized and evaluated was pA4 -antiRSV/(8490-8509). The binding sites for the chimeric oligonucleotide's antisense domain are to the transcripts of nucleotides 8490-8509 in the RSV genome, which spans the translation start codon for the L protein, and to nucleotides 8490-8509 of the antigenomic strand (the template for reproduction of the genome). Since to function as an effective treatment, a candidate agent must be able to inhibit viral replication subsequent to diagnosis, the anti-RSV effect of the 2-5A antisense chimera was determined on human tracheal epithelial cells, 9HTE, with treatments beginning either 4 h before RSV infection (pre-/post-infection treatments) or 2 h following infection (post-infection treatments). In the post-infection treatments, pA4 -antiRSV/([…]), was added at t+2, t+14 and t+26, (numbers represent time in h relative to time of infection, 0) For pre-infection treatment, pA4 -antiRSV/(8490-8509) (10 μM final concentration), was added at t-4, and t0 in addition to […]; t+14 and t+26. Virus harvested from control and oligonucleotide-treated 9HTE cells was measured by infecting CV-1 cells and subsequently counting viral plaques. […] On the basis of these experiments, all subsequent experiments were performed with post-infectiontreatments only. Additionally, these experiments indicate the potential use of these compounds as a treatment for active infection as compared to a prophylactic measure.
The human tracheal epithelial cell line, 9HTE, (Gruenert et al., 1988) and CV-1 cells, (American Type Culture Collection, Rockville, Md., CCI#70) a green monkey kidney cell line which is highly permissive to RSV infection, were cultured in minimal essential medium (MEM) supplemented with 10% (v/v) fetal bovine serum (FBS), 2 mM L-glutamine, 1× MEM amino acids solution, 1× MEM non-essential amino acids solution, 100 U/ml penicillin, 100 μg/ml streptomycin and 0.25 μg/ml amphotericin B ("culture medium") (all reagents from Gibco BRL, Bethesda, Md.). RSV strain A2 (ATCC No. VR1302) was propagated in CV-1 cells. CV-1 monolayers were infected at a multiplicity of infection (M.O.I.) of 0.2 and cultured 46 h in MEM, 2% FBS, 1× Penicillin/Streptomycin (PS) in 5% CO2, 95% O2 at 37° C. Cells were then washed 2 times in MEM and subsequently covered in MEM, 2% FBS, 1× PS, 50 mM HEPES (pH7.5), 100 mM Mg(SO4). After 2 h at 37° C., cells were scraped and sonicated as previously described (Panuska et al., 1995). Aliquots (1 ml each) of cell sonicates were flash frozen in ethanol/dry ice within 20 min of scraping. Several aliquots were then thawed and titered by a plaque assay on CV-1 cells as previously described (Cirino et al., 1993). The range of virus yield from this procedure was 2 to 7×10^6 plaque forming units (pfu) per ml.
Infection of 9HTE cells was performed as previously described (Merolla et al., 1994). Briefly, confluent monolayers were exposed to RSV diluted in MEM, 2% FBS, for 2 h at 37° C. in 5% CO2, 95% O2. After exposure, cells were washed two times with serum-free MEM media and then fresh culture media (with 10% FBS) was added. Oligonucleotides were either added 4 h prior to infection (t-4) or immediately after infection (t+2) and also at t+14 and t+26. Cells were harvested for plaque assays at 36 h post-infection to determine viral titers as previously described (Cirino et al., 1993). Cells were washed twice to remove any residual antisense and were then scraped in MEM containing 2% FBS, 1× PS. 9HTE cells were sonicated for 20 sec on ice then the extracts were serially diluted and transferred to a confluent monolayer of CV-1 for quantitation of infectious viral particles. […]

Series [2] deals with RSV strain A2. The series is described as follows: CPE inhibition assay in HEp-2 cells. The format is cell-based, Respiratory syncytial virus. The note with it: Table 10, CPE, HEp2; for EC50: read-out: EC50. The method, then:
The CPE inhibition assay used in this study was performed as described by Sidwell and Huffman (Sidwell et al., 1971, Appl. Microbiol. 22:7979-7801) with slight modifications. Varying concentrations of test compounds were added to each plate containing near confluent cell monolayers (1×10^5 cells/well) followed immediately by the addition of virus at a multiplicity of infection (MOI)=0.01, and then incubated at 37° C. […] All compounds were assayed for virus inhibition in quadruplicate and for cytotoxicity in duplicate. For each compound, two wells were set aside as uninfected, untreated cell controls per test and four wells per test received virus only and represented controls for virus replication. […] For all CPE-based assays, the 50% effective concentration (EC50) was calculated by regression analysis using the means of the CPE ratings at each concentration of compound.

Series [3] deals with Hep-2 Cells. The series is described as follows: Cytotoxicity by morphological changes in HEp-2 cells (CPE inhibition assay). The class given is cell-based, human. The conditions noted are these: Table 10, CPE, HEp2. As to the method: (§1) Embryonic African green monkey kidney cells (MA-104) were obtained from BioWhittaker, Inc. (Walkersville, Md.). HEp-2 cells were propagated from a human epidermoid carcinoma of the larynx (American Type Culture Collection, ATCC; Rockville, Md.). The cells were grown in minimal essential medium. (MEM, Gibco-BRL, Gaitherburg, Md.) supplemented with 0.1% NaHCO3 and 10% fetal bovine serum (FBS, Hyclone Laboratories, Logan Utah.). When performing antiviral assays, serum was reduced to 2% and 50 μg/ml gentamicin (Sigma Chemical Company, St. Louis, Mo.) was added to the medium.
Morphological changes due to compound cytotoxicity were graded on a scale of 0-5; grade 5 was defined as 100% cytotoxicity. The 50% cytotoxic dose (IC50 was calculated by regression analysis. A selective index (S.I.) was calculated for each compound [S.I.=(IC50)/(EC50 ].

The test system of series [4] is Hep-2 Cells. Description: Neutral red uptake assay of cytotoxicity in HEp-2 cells. The format is cell-based, human. The conditions noted are these: Table 11, neutral red, HEp2. As to the method: as §1
(§2) This assay was performed by a modified method as described by Cavenaugh et al. (Cavenaugh et al. 1990, Invest. New Drugs 8:347-354). Briefly, medium was removed from each well of a plate scored for CPE from a CPE inhibition assay, 0.2 ml of neutral red (0.034% in PSS) was added to each of the wells of that plate and the plate incubated for 2 hr at 37° C. in the dark. The neutral red solution was removed from the wells and the wells rinsed twice with PBS (pH 7.4). Equal volumes (0.1 ml) of absolute ethanol and Sorenson citrate buffer (0.1 M sodium citrate, 0.1 M HCI, pH 4.2) were mixed together and added to each well. Plates were incubated in the dark for 30 min. at room temperature to solubilize the dye. The plates were then gently mixed on a 96-well plate adapted vortexer for 1 min. Absorbances at 540 nm and 450 nm were read with a microplate reader (Bio-Tek EL 1309; Bio-Tek Instruments, Inc. Winooski, Vt.). Absorbance values were expressed as percents of untreated controls and EC50 and IC50 values were calculated by regression analysis.

Series [5] relates to RSV strain A2. Description: Neutral red uptake assay of CPE inhibition in HEp-2 cells. The class given is cell-based, Respiratory syncytial virus. The conditions noted are these: Table 11, neutral red, HEp2; for EC50: read-out: EC50. The method, then: as §2
[6] abbreviates: 6.6 μM oligonucleotide/treatment at t+2, t+14, t+26 h.
Where [7] appears, read: 9.9 μM oligonucleotide/treatment at t+2, t+14, t+26 h.
The mark [8] stands for this setting: 3.3 μM oligonucleotide/treatment at t+2, t+14, t+26 h.
The mark [9] stands for this setting: q.d. 1 day (added along with virus, never replenished).

Take “A2'p(A2'p)3 -[(Bu)p]2 -(5'aat ggg atc cat ttt gtc c3'-3'c5') [A4-antiRSV3'-3'C/(8490-8509)]”: the “% Inhibition of RSV replication” value in the series on RSV strain A2 [1] (setting [6]) is listed as 20%; in the series on RSV strain A2 [1] (setting [7]) it was 28.3%.
Regarding “pA2'p(A2'p)3 -[(Bu)p]2 -(3'ccc tgt ttt acc tag ggt aa5') [pA4-3'antiRSV5'/(8490-8509)]”, the “% Inhibition of RSV replication” value with RSV strain A2 [1] (setting [7]) amounted to 69%.
With “pA2'p(A2'p)3 -[(Bu)p]2 -(5'aat ggg atc cat ttt gtc c3'-3'c5') [pA4-antiRSV3'-3'C/(8490-8509)]”, the “% Inhibition of RSV replication” value is 2% in the series on RSV strain A2 [1] (setting [8]); 64.3% and 38.8% with RSV strain A2 [1] (setting [6]); 64.8% and 74% with RSV strain A2 [1] (setting [7]).
With “pA2'p(A2'p)3 -[(Bu)p]2 -(5'aat ggg atc cat ttt gtc cc3') [pA4-antiRSV/(8490-8509)]”, the “% Inhibition of RSV replication” value with RSV strain A2 [1] (setting [8]) was found to be 3%; in the series with RSV strain A2 [1] (setting [6]) it was 38.8%; in the series with RSV strain A2 [1] (setting [7]), 64.8%. Moreover, the “inhibition of RSV replication” value is “about 70%” in the series with RSV strain A2 [1] (post-infection treatment, 10 μM at t+2, t+14, t+26); “about 70%” with RSV strain A2 [1] (pre-/post-infection treatment, 10 μM at t-4, t0 and after infection).
As usually defined, the EC50 is the concentration needed to bring the measured effect to its halfway point. Usually IC50 stands for the concentration at which inhibition is half-maximal. As for “sp(5'A2')4 BupBupd(GsAsTsAGAAATAGAAAsGsCsA) (antisense GATAGAAATAGAAAGCA; chemistry not fully specified) [MP426, 2-5A-antisense control with scrambled antisense domain of MP351]”, the SI in the series with RSV strain A2 [2] (B.I.D. 2 days) is listed as over 32; in the series with RSV strain A2 [2] (B.I.D. 3 days) it was 16; in the series on RSV strain A2 [2] (B.I.D. 4 days), 3.2; in the series on RSV strain A2 [2] (q.d. 3 days) it was over 1; in the series on RSV strain A2 [2] (q.d. 4 days), over 3.2; in the series on RSV strain A2 [5] (B.I.D. 2 days), over 11. Moreover, the SI in the series on RSV strain A2 [5] (B.I.D. 3 days) is listed as 3.2. Also, the EC50 was 0.2 µM in the series with RSV strain A2 [2] (B.I.D. 3 days); over 3.2 µM in the series with RSV strain A2 [2] (setting [9]); 3.2 µM in the series on RSV strain A2 [2] (q.d. 3 days); 0.3 µM in the series with RSV strain A2 [5] (B.I.D. 2 days); over 3.2 µM in the series on RSV strain A2 [5] (B.I.D. 4 days); over 3.2 µM in the series with RSV strain A2 [5] (setting [9]). Moreover, the EC50 in the series with RSV strain A2 [5] (q.d. 3 days) and in the series on RSV strain A2 [5] (q.d. 4 days) was over 3.2 µM throughout. For the same substance, the IC50 with Hep-2 Cells [3] (B.I.D. 2 days) is over 3.2 µM; in the series with Hep-2 Cells [3] (B.I.D. 3 days) it was 3.2 µM; in the series on Hep-2 Cells [3] (B.I.D. 4 days), 3.2 µM; in the series with Hep-2 Cells [3] (setting [9]) it was over 3.2 µM; in the series on Hep-2 Cells [3] (q.d. 3 days), over 3.2 µM; in the series with Hep-2 Cells [3] (q.d. 4 days) it was over 3.2 µM. Besides, the IC50 with Hep-2 Cells [4] (B.I.D. 2 days) is over 3.2 µM; in the series on Hep-2 Cells [4] (B.I.D. 3 days) it was 3.2 µM; with Hep-2 Cells [4] (B.I.D. 4 days), 3.2 µM; with Hep-2 Cells [4] (setting [9]) it was over 3.2 µM; in the series with Hep-2 Cells [4] (q.d. 3 days) it was 3.2 µM; with Hep-2 Cells [4] (q.d. 4 days), 3.2 µM.
Take “spA2'p(A2'p)3 -[(Bu)p]2 -(5'aat ggg atc cat ttt gtc cc3') [spA4-antiRSV/(8490-8509)]”: the results for the “% Inhibition of RSV replication” value in the series on RSV strain A2 [1] (setting [8]), in the series with RSV strain A2 [1] (setting [6]) and in the series with RSV strain A2 [1] (setting [7]) were 16.5%, 71% and 94%, respectively.
On to “spA2'p(A2'p)3 -[(Bu)p]2 -(5'ata gtg tgt tct ttt gat t3'-3'a5') [spA4-antiRSV3'-'3A/(8251-8270)]”, for which the figures for the “% Inhibition of RSV replication” value in the series on RSV strain A2 [1] (setting [8]) and in the series with RSV strain A2 [1] (setting [6]) were 86.7% and 92%, respectively.
On to “spA2'p(A2'p)3 -[(Bu)p]2 -(5'ctc tga gaa aga gat aa3'-3'c5') [spA4-antiRSV3'-3'C/(8561-8578)]”, for which, in the series on RSV strain A2 [1] (setting [8]), the “% Inhibition of RSV replication” value worked out at 57%.
For the substance “spA2'p(A2'p)3 -[(Bu)p]2 -(5'gat aag gac cat tga ata t3'-3'g5') [spA4-antiRSV3'-3'G/(8599-8618)]”, the “% Inhibition of RSV replication” value with RSV strain A2 [1] (setting [8]) was 43% and 44%.
On to “spA2'p(A2'p)3 -[(Bu)p]2 -(5'gat tga aat ata gtg tgt3'-3't5') [spA4-antiRSV3'-3'T/(8261-8279)]”, for which the “% Inhibition of RSV replication” value with RSV strain A2 [1] (setting [8]) is reported as 78%; with RSV strain A2 [1] (setting [6]) it was 87%; in the series with RSV strain A2 [1] (setting [7]), 87%.
